Results reported in ChEMBL document CHEMBL3885881, “DrugMatrix”.

Species: Rattus norvegicus
Assay: DrugMatrix - Regimen: Daily Repeat
Format: toxicity, organism-based, Sprague-Dawley
Set-up: regimen Daily Repeat, gender Male, age 6-8 weeks
Conditions: in vivo, po, route oral GAVAGE, […]; for URIC ACID / ALANINE AMINOTRANSFERASE / ALBUMIN / ALKALINE PHOSPHATASE / ASPARTATE AMINOTRANSFERASE / BLOOD UREA NITROGEN / CARBON DIOXIDE / CHLORIDE / CREATINE PHOSPHOKINASE / CREATININE / GLUCOSE / LACTATE DEHYDROGENASE / LIPASE / PHOSPHORUS / POTASSIUM / SODIUM / TOTAL BILIRUBIN / TOTAL PROTEIN / CHOLESTEROL: tissue Plasma; for ABSOLUTE BASOPHIL / ABSOLUTE EOSINOPHIL / ABSOLUTE LYMPHOCYTE / ABSOLUTE MONOCYTE / ABSOLUTE SEGMENTED NEUTROPHIL / BASOPHIL / EOSINOPHIL / ERYTHROCYTE COUNT / HEMATOCRIT / HEMOGLOBIN / LEUKOCYTE COUNT / LYMPHOCYTE / MEAN CORPUSCULAR HEMOGLOBIN / MEAN CORPUSCULAR HEMOGLOBIN CONCENTRATION / MONOCYTE / NEUTROPHIL / NUCLEATED RED BLOOD CELLS / PLATELET COUNT: tissue Blood
[1] = 250 mg/kg, 120 h, dose level Low, time 5 day
[2] = 2500 mg/kg, 72 h, dose level High, time 3 day
[3] = 2500 mg/kg, 120 h, dose level High, time 5 day

## Cc1noc(NS(=O)(=O)c2ccc(N)cc2)c1C [SULFISOXAZOLE]
250 mg/kg, 72 h, dose level Low, time 3 day
  URIC ACID: 1.8 mg/dL
[1]
  ABSOLUTE BASOPHIL: 0 CELLS/uL
  ABSOLUTE EOSINOPHIL: 0 CELLS/uL
  ABSOLUTE LYMPHOCYTE: 9180.67 CELLS/uL
  ABSOLUTE MONOCYTE: 0 CELLS/uL
  ABSOLUTE SEGMENTED NEUTROPHIL: 986 CELLS/uL
  BASOPHIL: 0%
  EOSINOPHIL: 0%
  ERYTHROCYTE COUNT: 5.62 x10E6/uL
  HEMATOCRIT: 34.93%
  HEMOGLOBIN: 13.27 G/DL
  LEUKOCYTE COUNT: 10.17 x10E3/uL
  LYMPHOCYTE: 90.67%
  MEAN CORPUSCULAR HEMOGLOBIN: 23.63 pg
  MEAN CORPUSCULAR HEMOGLOBIN CONCENTRATION: 38 G/DL
  MONOCYTE: 0%
  NEUTROPHIL: 9.33%
  NUCLEATED RED BLOOD CELLS: 0 /100WBC
  PLATELET COUNT: 1021 x10E3/uL
  ALANINE AMINOTRANSFERASE: 64.33 u/L
  ALBUMIN: 4 G/DL
  ALKALINE PHOSPHATASE: 394 u/L
  ASPARTATE AMINOTRANSFERASE: 103.67 u/L
  BLOOD UREA NITROGEN: 15 mg/dL
  CARBON DIOXIDE: 30.67 mmol/L
  CHLORIDE: 101.67 MEQ/L
  CREATINE PHOSPHOKINASE: 404 u/L
  CREATININE: 0.18 mg/dL
  GLUCOSE: 149.33 mg/dL
  LACTATE DEHYDROGENASE: 127.33 u/L
  LIPASE: 11 u/L
  PHOSPHORUS: 10.7 mg/dL
  POTASSIUM: 5.9 MEQ/L
  SODIUM: 143.87 MEQ/L
  TOTAL BILIRUBIN: 0.17 mg/dL
  TOTAL PROTEIN: 5.9 G/DL
  URIC ACID: 1 mg/dL
[2]
  ABSOLUTE BASOPHIL: 0 CELLS/uL
  ABSOLUTE EOSINOPHIL: 133 CELLS/uL
  ABSOLUTE LYMPHOCYTE: 8008.67 CELLS/uL
  ABSOLUTE MONOCYTE: 152 CELLS/uL
  ABSOLUTE SEGMENTED NEUTROPHIL: 3173 CELLS/uL
  BASOPHIL: 0%
  EOSINOPHIL: 1%
  ERYTHROCYTE COUNT: 4.62 x10E6/uL
  HEMATOCRIT: 28.6%
  HEMOGLOBIN: 11.27 G/DL
  LEUKOCYTE COUNT: 11.47 x10E3/uL
  LYMPHOCYTE: 67%
  MEAN CORPUSCULAR HEMOGLOBIN: 24.33 pg
  MEAN CORPUSCULAR HEMOGLOBIN CONCENTRATION: 39.47 G/DL
  MONOCYTE: 1%
  NEUTROPHIL: 31%
  NUCLEATED RED BLOOD CELLS: 0 /100WBC
  PLATELET COUNT: 1118.33 x10E3/uL
  ALANINE AMINOTRANSFERASE: 65.33 u/L
  ALBUMIN: 4 G/DL
  ALKALINE PHOSPHATASE: 312 u/L
  ASPARTATE AMINOTRANSFERASE: 109.67 u/L
  BLOOD UREA NITROGEN: 13.67 mg/dL
  CARBON DIOXIDE: 24.67 mmol/L
  CHLORIDE: 98.33 MEQ/L
  CHOLESTEROL: 78.33 mg/dL
  CREATINE PHOSPHOKINASE: 1633.33 u/L
  CREATININE: 0.24 mg/dL
  GLUCOSE: 172.33 mg/dL
  LACTATE DEHYDROGENASE: 198.67 u/L
  LIPASE: 10.67 u/L
  PHOSPHORUS: 11.6 mg/dL
  POTASSIUM: 4.69 MEQ/L
  SODIUM: 140.23 MEQ/L
  TOTAL BILIRUBIN: 0.0667 mg/dL
  TOTAL PROTEIN: 6.13 G/DL
  URIC ACID: 1.5 mg/dL
[3]
  ABSOLUTE BASOPHIL: 0 CELLS/uL
  ABSOLUTE EOSINOPHIL: 0 CELLS/uL
  ABSOLUTE LYMPHOCYTE: 10533.67 CELLS/uL
  ABSOLUTE MONOCYTE: 131 CELLS/uL
  ABSOLUTE SEGMENTED NEUTROPHIL: 502 CELLS/uL
  BASOPHIL: 0%
  EOSINOPHIL: 0%
  ERYTHROCYTE COUNT: 5.59 x10E6/uL
  HEMATOCRIT: 35.7%
  HEMOGLOBIN: 13.8 G/DL
  LEUKOCYTE COUNT: 11.17 x10E3/uL
  LYMPHOCYTE: 94.33%
  MEAN CORPUSCULAR HEMOGLOBIN: 24.7 pg
  MEAN CORPUSCULAR HEMOGLOBIN CONCENTRATION: 38.63 G/DL
  MONOCYTE: 1%
  NEUTROPHIL: 4.67%
  NUCLEATED RED BLOOD CELLS: 0 /100WBC
  PLATELET COUNT: 1151.33 x10E3/uL
  ALANINE AMINOTRANSFERASE: 87.67 u/L
  ALBUMIN: 4.17 G/DL
  ALKALINE PHOSPHATASE: 442.67 u/L
  ASPARTATE AMINOTRANSFERASE: 84.33 u/L
  BLOOD UREA NITROGEN: 19.33 mg/dL
  CARBON DIOXIDE: 31 mmol/L
  CHLORIDE: 101.67 MEQ/L
  CHOLESTEROL: 73.33 mg/dL
  CREATINE PHOSPHOKINASE: 296.67 u/L
  CREATININE: 0.23 mg/dL
  GLUCOSE: 139 mg/dL
  LACTATE DEHYDROGENASE: 98 u/L
  LIPASE: 11 u/L
  PHOSPHORUS: 9.13 mg/dL
  POTASSIUM: 5.93 MEQ/L
  SODIUM: 145.57 MEQ/L
  TOTAL BILIRUBIN: 0.1 mg/dL
  TOTAL PROTEIN: 6.3 G/DL
  URIC ACID: 0.97 mg/dL
